# Assay results from patent US20070054868A1, “Synergistic polyphenol compounds, compositions thereof, and uses thereof” (The Trustees of Columbia University in the City of New York, priority 2005, published 2007).
# Tests used:
# p-Akt = assay: Western blot analysis in SW837 cells; format: cell-based, human; conditions: 20 μg/mL, at 6 hours
# Source text: (§1) Total cellular protein was extracted and equivalent amounts of protein can be determined by western blot analysis using the methods described in Suzui, et al., Cancer Res., 62:3997-4006 (2002). The primary antibodies for several proteins are described in Masuda et al., Clin Cancer Res., 7:4220-4229 (2001); Masuda et al., Clin Cancer Res., 9:3486-3491 (2003); and Shimizu et al., Clin Cancer Res., 11:2735-2746 (2005). The primary antibodies for HER3 (2F12) and COX-2 (PG27) were purchased from Upstate Cell Signaling Solutions (Charlottesville, Va.) and Oxford Biochemical Research (Oxford, Mich.), respectively. To examine the levels of expression of the phosphorylated (i.e. activated) form of the HER3 protein (p-HER3), cellular lysates (1 mg/mL) were incubated with 4 μg anti-HER3 antibody overnight at 4° C. with slow agitation, and immune complexes were then precipitated by adding protein A/G agarose (sc-2003, Santa Cruz Biotechnology, Santa Cruz, Calif.). After incubating for 2 hours at 4° C., the beads were washed with lysis buffer, and bound proteins were eluted into the sample buffer and subjected to western blot analysis, as described above. The p-HER3 protein was then detected by using an anti-phospho-tyrosine antibody (PY-20-HRP, BD Transduction Laboratories, San Diego, Calif.). An antibody to actin was used as a loading control. Each membrane was developed using an ECL-enhanced chemiluminescence system (Amersham Biosciences, Piscataway, N.J.).
# Bcl-xL = assay: Western blot analysis in SW837 cells; format: cell-based, human; conditions: 1.0 μg/mL, 96 hours
# Source text: as §1
# p-EGFR = assay: Western blot analysis in SW837 cells; format: cell-based, human
# Source text: as §1
# COX-2 protein = assay: Western blot analysis in SW837 cells; format: cell-based, human; conditions: for cellular level of the COX-2 protein: 20 μg/mL
# Source text: as §1
# p-ERK = assay: Western blot analysis in SW837 cells; format: cell-based, human; conditions: 20 μg/mL, at 12 hours
# Source text: as §1
# p-HER2 = assay: Western blot analysis in SW837 cells; format: cell-based, human
# Source text: as §1
# EGFR = molecular target: T1, EGFR (Homo sapiens, UniProt P00533); assay: Binding of Alexa 488-labeled EGF to the cell surface receptor; conditions: HT29 cells pre-treated with test substance
# T1 construct: endogenous in cells; host or cells: HT29 colon cancer cells
# Experimental: These effects were detected with as little as […] of EGCG, and within 5 minutes. Phosphorylation of EGFR, ERK1, ERK2, and AKT were suppressed in cells treated with methyl-β-cyclodextrin, which depletes plasma membrane cholesterol. […] In addition, the inhibitory effect of EGCG on phosphorylation of EGFR was not blocked by the addition of cholesterol on the growth medium. These findings provide evidence that EGCG can alter membrane domain organization in colon cancer cells ant that this is not due to cholesterol depletion. It was noted that pre-treatment of the cells with EGCG or Poly E inhibited the binding of Alexa 488-labeled EGF to the cell surface receptor EGFR.
# IGF-1R proteins = assay: Western blot analysis for IGF in SW837 cells, total receptor; format: cell-based, human; conditions: 20 μg/mL, during the time course
# Source text: Total cellular protein was extracted and equivalent amounts of protein were examined by western blot analysis, as described above in Example 6. Cell lysates were separated by SDS-PAGE using 7.5 to 15% polyacrylamide gels and transferred onto Immobilon-P transfer membranes (Millipore Co., Bedford, Mass.). The primary antibodies for IGF-1R[…](#3022) and p-IGF-1R (#3021) were purchased from Cell Signaling Technology (Beverly, Mass.). The primary antibodies for IGF-1R[…](sc-713) and IGFBP-3 (sc-6003) were purchased from Santa Cruz Biotechnology (Santa Cruz, Calif.). The primary antibodies for IGF-1 (clone Sm1.2) and actin (A2066) were purchased from Upstate Cell Signaling Solutions (Charlottesville, Va.) and Sigma Chemical Co. (St Louis, Mo.), respectively. An antibody to actin was used as a loading control. Anti-mouse IgG (Amersham Pharmacia Biosciences, Piscataway, N.J.), anti-rabbit IgG (Amersham Pharmacia Biosciences), or anti-goat IgG (Santa Cruz Biotechnology) antibodies were used as the secondary antibodies. Each membrane was developed using an ECL-enhanced chemiluminescence system (Amersham Biosciences).
# IGFBP-3 = assay: Production of IGFBP-3 in HepG2 cells; format: cell-based, human; conditions: 20 μg/mL
# Experimental: The cells were treated with […] EGCG at 0, 3, 6, 12, 24 and 48 hours, and cell extracts were examined by Western blot analysis using the respective antibodies, or were examined by semiquantitative RT-PCR analysis using IGFBP-3 or IGF-1 specific primers.
# Using the MTT cell proliferation assay described in Example 21, and substituting HepG2 human liver cancer cells in place of SW837 cells, the effects of EGCG (20 μg/mL), an illustrative Synergistic Polyphenol Compound, on the production of IGF-1, IGF-2 and IGFBP-3 was determined. […] Accordingly, the Synergistic Polyphenol Compounds are useful for treating or preventing liver cancer.
# [1] = tested on: EGFR, HER2, HER3, Akt and ERK; assay: Western blot analysis in SW837 cells, total levels of the respective proteins; format: cell-based, human; conditions: 20 μg/mL, during the time course
# Source text: as §1, with “Each membrane was developed using an ECL-enhanced chemiluminescence system (Amersham Biosciences, Piscataway, N.J.).” left out
# SW837 = assay: Growth inhibition IC50 against colorectal cell lines; format: cell-based, human
# Source text: Cell lines and cell culture. The Caco2, HCT116, HT29, SW480, and SW837 human colorectal cancer cell lines and the FHC normal human fetal colon cell line were obtained from American Type Culture Collection (Manassas, Va.). All cell lines were maintained in DF10 medium containing DMEM (Invitrogen, San Diego, Calif.) supplemented with 10% fetal bovine serum (Invitrogen). The FHC cell line was originally established from the colon of a human fetus at 13 weeks of gestation and has an epithelial morphology. Cells were cultured in an incubator with humidified air at 37° C. with 5% CO2. As an untreated solvent control, cells were treated with DMSO (Sigma Chemical Co., St. Louis, Mo.) at a final concentration of <0.1%. […] Cells to be tested against were plated onto 96-well plates (3×10^3 cells/well) and twenty-four hours later, the cells were treated with an illustrative Synergistic Polyphenol Composition, or one or more illustrative Synergistic Polyphenol Compounds. Neither the medium nor the test compounds were changed during this time period. The assay was done in triplicate. […] The medium and test compounds were not changed during this time period. As a control, the cells were treated with 0.1% DMSO. […] The numbers of cells in replica plates were then determined using a Coulter Counter (Beckman Coulter Co., Fullerton, Calif.) as described in Shimizu et al., Clin. Cancer Res. 2004: 10:1130-40.
substance,measurement,setting,value
(−)-epigallocatechin gallate,levels of the p-Akt protein,p-Akt,marked decreases
same,levels of the Bcl-xL protein,Bcl-xL,decrease
same,levels of the p-EGFR protein,"p-EGFR; 1.0 μg/mL, 96 hours",decrease
same,levels of the p-EGFR protein,"p-EGFR; 20 μg/mL, within 6 hours",marked decrease
same,levels of the COX-2 protein,"COX-2 protein; 1.0 μg/mL, 96 hours",decrease
same,cellular level of the COX-2 protein,COX-2 protein; after 12 to 24 hours,marked decrease
same,cellular level of the COX-2 protein,COX-2 protein; at 48 hours,almost undetectable
same,levels of the p-ERK protein,p-ERK,marked decreases
same,levels of the p-HER2 protein,"p-HER2; 1.0 μg/mL, 96 hours",decrease
same,levels of the p-HER2 protein,"p-HER2; 20 μg/mL, within 6 hours",marked decrease
same,binding of Alexa 488-labeled EGF to the cell surface receptor EGFR,EGFR,inhibited
same,levels of the IGF-1R proteins (total),IGF-1R proteins,no significant changes
same,production of IGFBP-3,IGFBP-3,increased the production
same,total levels of the respective proteins,[1],no significant changes
same,IC50,SW837,19.6 µg/mL
same,IC50 concentration determined by MTT assays,SW837,20 µg/mL
